# Results published in US20100062462A1, “IMMUNODEFICIENCY VIRUSES” (priority 2005, published 2010).
# Legend:
# [1] = biological target: T1, HIV protease (Human immunodeficiency virus type 1 group M subtype B, UniProt P04585); test: casp8p41 production in Jurkat T cells transfected with HIV protease, flow cytometry; type: cell-based; conditions: Jurkat T cells transfected with pEYFP-protease; 7 μM Nelfinavir or 20 μM Z-VAD-fmk added immediately following transfection; assessed the following morning
# T1 construct: Jurkat T cells were transfected with 1 μg of pEYFP-protease per 10^7 cells; EYFP; expressed in transfected cells; host or cells: Jurkat T cells
# Experimental: To determine whether casp8p41 is produced specifically as a consequence of HIV-PR activity, as opposed to being produced as a consequence of apoptotic processing of procaspase 8, casp8p41 expression was assessed following HIV-PR transfection in the presence or absence of HIV-PR inhibitor, Nelfinavir, or the pan-caspase inhibitor, z-VAD-fmk. Jurkat T cells were transfected with 1 μg of pEYFP-protease per 10^7 cells using a square wave electroporator (BTX) at 320 V for 10 msec. Immediately following transfection, 7 μM Nelfinavir or 20 μM Z-VAD-fmk was added. The following morning, casp8p41 was assessed by flow cytometry.
# [2] = test system: Jurkat T cells; test: active caspase-3 and casp8p41 in Jurkat T cells treated with apoptotic stimuli, flow cytometry; type: cell-based; conditions: for casp8p41 immunoreactivity: same stimuli, 10 μM campothecin for 8 hours; for apoptosis, as determined by activation of caspase-3: 50 ng/mL TNF-α plus 5 μg/mL cycloheximide, 100 ng/mL SuperKillerTRAIL, 250 ng/mL anti-Fas CH-11, 2 μM Tat, 1 μg/mL gp120 for 8 hours, 10 μM Vpr-derived peptide 4 hours
# Experimental: It was determined whether casp8p41 is generated in response to other apoptotic stimuli. Jurkat T cells (10^6) were treated with 10 μM campothecin, 100 ng/mL SuperKillerTRAIL™ (Axxora), 250 ng/mL anti-Fas antibody CH-11 (Upstate Cell Signaling Solutions), 50 ng/mL TNF-α (R&D Systems) plus 5 μg/mL cycloheximide, 2 μM HIV Tat (NIH AIDS Research and Reference Reagent Program), 1 μg/mL of HIV gp120 (ImmunoDiagnostic), or vehicle controls for 8 hours at 37° C. For Vpr-induced apoptosis, Jurkat T cells were incubated with isotonic glucose-Hepes buffer (2.4% glucose, 13 mM Hepes, 68 mM NaCl, 1.3 mM KCl, 4 mM Na2HPO4, and 0.7 mM KH2PO4, pH 7.2) alone or containing 10 μM of Vpr-derived peptide (amino acids 61-75; NIH AIDS Research and Reference Reagent Program) for 4 hours at 37° C. After the incubation, cells were washed in PBS and incubated overnight at 37° C. After incubation for the indicated times, cells were fixed in 2% paraformaldehyde at 4° C. overnight. To determine the presence of casp8p41 on apoptotic cells, cells were permeabilized with PBS+0.1% NP-40 on ice for two minutes. Cells were then incubated with the mouse anti-casp8p41 antibody, followed by PE-labeled goat anti-mouse antibody (Becton Dickinson ImmunoCytochemistry) and FITC-labeled rabbit anti-active caspase-3 antibody.
Molecule,casp8p41 production [1],casp8p41 immunoreactivity [2],"apoptosis, as determined by activation of caspase-3 [2]"
Cc1c(O)cccc1C(=O)N[C@@H](CSc1ccccc1)[C@H](O)CN1C[C@H]2CCCC[C@H]2C[C@H]1C(=O)NC(C)(C)C [Nelfinavir],abrogated casp8p41 production,,
CC[C@@]1(O)C(=O)OCc2c1cc1n(c2=O)Cc2cc3ccccc3nc2-1 [campothecin],,casp8p41 was not produced,
TNF-α,,did not generate casp8p41 immunoreactivity,did indeed induce apoptosis
TRAIL,,did not generate casp8p41 immunoreactivity,did indeed induce apoptosis
Z-VAD-fmk,did not alter casp8p41 production,,
